Experimental findings from patent US11254663B2 (BRISTOL-MYERS SQUIBB COMPANY, priority 2019, dated 2022) are described below.

Structures are written as SMILES.

The first assay deals with FXR (Homo sapiens (Human), UniProt Q96RI1). Nature of the assay: transient human FXR/Gal4-luciferase reporter assay. The assay is classed as cell-based.
FXR, sequence (Q96RI1 262-486): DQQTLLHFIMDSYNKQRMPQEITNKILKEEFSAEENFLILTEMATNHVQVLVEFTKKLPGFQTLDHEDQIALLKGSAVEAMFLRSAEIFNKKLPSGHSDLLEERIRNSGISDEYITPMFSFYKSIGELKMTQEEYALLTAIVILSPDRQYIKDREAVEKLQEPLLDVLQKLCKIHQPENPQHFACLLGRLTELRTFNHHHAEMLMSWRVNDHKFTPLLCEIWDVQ
Details: not given
The procedure, abridged:
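Compound exposure ran overnight at 37 °C and activity was measured as luminescence with Steady-Glo reagent. The cells were a HEK293 line stably expressing firefly luciferase under five Gal4 response elements. They were transiently transfected, one night beforehand, with a plasmid encoding Gal4 DNA-binding domain fused to the human FXR ligand-binding domain.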
For `Cc1nc2ccc(-c3cccc(N(CC45CCC(c6nc(C(F)F)no6)(CC4)CC5)C(=O)C45CC(F)(C4)C5)c3)cc2s1` [Example 471, N-((4-(3-(difluoromethyl)-1,2,4-oxadiazol-5-yl)bicyclo[2.2.2]octan-1-yl)methyl)-3-fluoro-N-(3-(2-methylbenzo[d]thiazol-6-yl)phenyl)bicyclo[1.1.1]pentane-1-carboxamide], it took 0.135 µM to reach a half-maximal effect (EC50).
Still for that read-out and setting: the result for `O=C(N(CC12CCC(c3noc(C(F)F)n3)(CC1)CC2)c1cccc(-c2cnc(C(F)(F)F)nc2)c1)C12CC(F)(C1)C2` [Example 464, N-((4-(5-(difluoromethyl)-1,2,4-oxadiazol-3-yl)bicyclo[2.2.2]octan-1-yl)methyl)-3-fluoro-N-(3-(2-(trifluoromethyl)pyrimidin-5-yl)phenyl)bicyclo[1.1.1]pentane-1-carboxamide] reads 0.654 µM; that for `CCOc1ccc(-c2cncc(N(CC34CCC(c5noc(C(C)(C)C)n5)(CC3)CC4)C(=O)C34CC(F)(C3)C4)c2)cc1` [Example 482, N-((4-(5-(tert-butyl)-1,2,4-oxadiazol-3-yl)bicyclo[2.2.2]octan-1-yl)methyl)-N-(5-(4-ethoxyphenyl)pyridin-3-yl)-3-fluorobicyclo[1.1.1]pentane-1-carboxamide], 0.322 µM.
Same read-out and setting: for `COc1cnc(-c2cccc(N(CC34CCC(c5ccc(C(F)(F)F)cn5)(CC3)CC4)C(=O)C34CC(F)(C3)C4)c2)nc1` [Example 500, 3-fluoro-N-(3-(5-methoxypyrimidin-2-yl)phenyl)-N-((4-(5-(trifluoromethyl)pyridin-2-yl)bicyclo[2.2.2]octan-1-yl)methyl)bicyclo[1.1.1]pentane-1-carboxamide] the value was 0.81 µM; for `CC(C)(O)c1ccc(-c2cccc(N(CC34CCC(c5noc(C(C)(C)F)n5)(CC3)CC4)C(=O)NCC3(O)CC3)c2)cc1` [Example 648, 1-((4-(5-(2-fluoropropan-2-yl)-1,2,4-oxadiazol-3-yl)bicyclo[2.2.2]octan-1-yl)methyl)-3-((1-hydroxycyclopropyl)methyl)-1-(4′-(2-hydroxypropan-2-yl)-[1,1′-biphenyl]-3-yl)urea], 0.509 µM.
As to `O=C(N(CC12CCC(c3nc(C(F)F)no3)(CC1)CC2)c1cccc(-c2ccc(OC(F)F)cc2)c1)C12CC(F)(C1)C2` [Example 468, N-(4′-(difluoromethoxy)-[1,1′-biphenyl]-3-yl)-N-((4-(3-(difluoromethyl)-1,2,4-oxadiazol-5-yl)bicyclo[2.2.2]octan-1-yl)methyl)-3-fluorobicyclo[1.1.1]pentane-1-carboxamide], the EC50 is 0.184 µM.

Still in this assay, the particulars now being: Gal4-hFXR fusion construct, HEK293 reporter cells; response relative to 8 μM GW-4064.
Consider `O=C(N(CC12CCC(c3nc(C4CC4)no3)(CC1)CC2)c1cccc(-c2ccc3ncsc3c2)c1)C12CC(F)(C1)C2` [Example 277, N-(3-(benzo[d]thiazol-6-yl)phenyl)-N-((4-(3-cyclopropyl-1,2,4-oxadiazol-5-yl)bicyclo[2.2.2]octan-1-yl)methyl)-3-fluorobicyclo[1.1.1]pentane-1-carboxamide], for which the EC50 turned out to be 0.035 µM.
`CC(F)(F)c1nc(C23CCC(CN(C(=O)C4CC(O)(C(F)(F)F)C4)c4cccc(-c5ccc(C(O)C(F)F)cc5)c4)(CC2)CC3)no1` (single isomer, unassigned) [Example 628 (first eluting isomer)] registered an EC50 of 0.092 µM.
`CC(C)c1nc(C23CCC(CN(C(=O)C45CC(F)(C4)C5)c4cccc(-c5ccc(OC(F)F)cc5)c4)(CC2)CC3)no1` [Example 436, N-(4′-(difluoromethoxy)-[1,1′-biphenyl]-3-yl)-3-fluoro-N-((4-(5-isopropyl-1,2,4-oxadiazol-3-yl)bicyclo[2.2.2]octan-1-yl)methyl)bicyclo[1.1.1]pentane-1-carboxamide] gave an EC50 of 0.046 µM.
Still for that read-out and setting: the result for `COc1ccc(-c2cccc(N(CC34CCC(c5nc(C6CC6)no5)(CC3)CC4)C(=O)C34CC(F)(C3)C4)c2)cc1C#N` [Example 296, N-(3′-cyano-4′-methoxy-[1,1′-biphenyl]-3-yl)-N-((4-(3-cyclopropyl-1,2,4-oxadiazol-5-yl)bicyclo[2.2.2]octan-1-yl)methyl)-3-fluorobicyclo[1.1.1]pentane-1-carboxamide] reads 0.294 µM; that for `COc1ccc(-c2cccc(N(CC34CCC(c5ccc(C6(C#N)CC6)cc5)(CC3)OC4)C(=O)C34CC(F)(C3)C4)c2)cc1` [Example 349, N-((1-(4-(1-cyanocyclopropyl)phenyl)-2-oxabicyclo[2.2.2]octan-4-yl)methyl)-3-fluoro-N-(4′-methoxy-[1,1′-biphenyl]-3-yl)bicyclo[1.1.1]pentane-1-carboxamide], 0.13 µM; that for `CC(C)Oc1ccc(-c2ccnc(N(CC34CCC(c5noc(C(C)(F)F)n5)(CC3)CC4)C(=O)N3CCOCC3)c2)cc1` [Example 626, N-((4-(5-(1,1-difluoroethyl)-1,2,4-oxadiazol-3-yl)bicyclo[2.2.2]octan-1-yl)methyl)-N-(4-(4-isopropoxyphenyl)pyridin-2-yl)morpholine-4-carboxamide], 0.072 µM.
The compound `CC(C)(O)c1ccc(-c2cccc(N(CC34CCC(c5noc(C(C)(C)F)n5)(CC3)CC4)C(=O)[C@H]3C[C@@](C)(O)C3)c2)cc1` [Example 577, (cis)-N-((4-(5-(2-fluoropropan-2-yl)-1,2,4-oxadiazol-3-yl)bicyclo[2.2.2]octan-1-yl)methyl)-3-hydroxy-N-(4′-(2-hydroxypropan-2-yl)-[1,1′-biphenyl]-3-yl)-3-methylcyclobutane-1-carboxamide] displayed an EC50 of 0.023 µM.
The same measure, in the same setting: for `CS(=O)(=O)Nc1ncc(-c2cccc(N(CC34CCC(c5nc(C6CC6)no5)(CC3)CC4)C(=O)C34CC(F)(C3)C4)c2)cn1` [Example 272, N-((4-(3-cyclopropyl-1,2,4-oxadiazol-5-yl)bicyclo[2.2.2]octan-1-yl)methyl)-3-fluoro-N-(3-(2-(methylsulfonamido)pyrimidin-5-yl)phenyl)bicyclo[1.1.1]pentane-1-carboxamide] the value was 0.559 µM; for `Cc1nc2ccc(-c3cccc(N(CC45CCC(c6noc(C(C)(C)C)n6)(CC4)CC5)C(=O)C45CC(F)(C4)C5)c3)cc2s1` [Example 441, N-((4-(5-(tert-butyl)-1,2,4-oxadiazol-3-yl)bicyclo[2.2.2]octan-1-yl)methyl)-3-fluoro-N-(3-(2-methylbenzo[d]thiazol-6-yl)phenyl)bicyclo[1.1.1]pentane-1-carboxamide], 0.068 µM; for `N#Cc1cnn2c(-c3cccc(N(CC45CCC(c6nc(C7CC7)no6)(CC4)CC5)C(=O)C45CC(F)(C4)C5)c3)cnc2c1` [Example 314, N-(3-(7-cyanoimidazo[1,2-b]pyridazin-3-yl)phenyl)-N-((4-(3-cyclopropyl-1,2,4-oxadiazol-5-yl)bicyclo[2.2.2]octan-1-yl)methyl)-3-fluorobicyclo[1.1.1]pentane-1-carboxamide], 0.504 µM.
For `Cc1nc2ccc(-c3cccc(N(CC45CCC(c6cc(C7CC7)n(C)n6)(CC4)CC5)C(=O)C45CC(F)(C4)C5)c3)cc2s1` [Example 409, N-((4-(5-cyclopropyl-1-methyl-1H-pyrazol-3-yl)bicyclo[2.2.2]octan-1-yl)methyl)-3-fluoro-N-(3-(2-methylbenzo[d]thiazol-6-yl)phenyl)bicyclo[1.1.1]pentane-1-carboxamide], the response was half-maximal at 0.073 µM (EC50).
The compound `O=C(N(CC12CCC(c3nc(C4CC4)no3)(CC1)CC2)c1cccc(-c2cccc(OC(F)(F)F)c2)c1)C12CC(F)(C1)C2` [Example 259, N-((4-(3-cyclopropyl-1,2,4-oxadiazol-5-yl)bicyclo[2.2.2]octan-1-yl)methyl)-3-fluoro-N-(3′-(trifluoromethoxy)-[1,1′-biphenyl]-3-yl)bicyclo[1.1.1]pentane-1-carboxamide] had an EC50 of 0.268 µM.
As to `CC(F)(F)c1nc(C23CCC(CN(C(=O)OC(C)(C)C(F)(F)F)c4cc(-c5ccc(OC(F)(F)Cl)cc5)ccn4)(CC2)CC3)no1` [Example 615, 1,1,1-trifluoro-2-methylpropan-2-yl (4-(4-(chlorodifluoromethoxy)phenyl)pyridin-2-yl)((4-(5-(1,1-difluoroethyl)-1,2,4-oxadiazol-3-yl)bicyclo[2.2.2]octan-1-yl)methyl)carbamate], the EC50 is 0.473 µM.
On to `CC(C)NC(=O)NC12CCC(CN(C(=O)C3CC(O)(C(F)(F)F)C3)c3cccc(-c4ccc(OC(C)C)cc4)c3)(CC1)CC2` (stereo not drawn) [Example 604, (cis)-3-hydroxy-N-(4′-isopropoxy-[1,1′-biphenyl]-3-yl)-N-((4-(3-isopropylureido)bicyclo[2.2.2]octan-1-yl)methyl)-3-(trifluoromethyl)cyclobutane-1-carboxamide], for which the EC50 was 0.968 µM.
For the compound `COc1ncc(-c2cccc(N(CC34CCC(c5nc(C(C)C)no5)(CC3)CC4)C(=O)C34CC(F)(C3)C4)c2)cn1` [Example 383, 3-Fluoro-N-((4-(3-isopropyl-1,2,4-oxadiazol-5-yl)bicyclo[2.2.2]octan-1-yl)methyl)-N-(3-(2-methoxypyrimidin-5-yl)phenyl)bicyclo[1.1.1]pentane-1-carboxamide], the EC50 was 0.047 µM.
`CC(C)(F)c1nc(C23CCC(CN(c4cccc(C5=CCC(C(C)(C)O)CC5)c4)C(=O)[C@H]4C[C@](O)(C(F)(F)F)C4)(CC2)CC3)no1` (stereo partly drawn) [Example 587, (cis)-N-((4-(5-(2-fluoropropan-2-yl)-1,2,4-oxadiazol-3-yl)bicyclo[2.2.2]octan-1-yl)methyl)-3-hydroxy-N-(4′-(2-hydroxypropan-2-yl)-2′,3′,4′,5′-tetrahydro-[1,1′-biphenyl]-3-yl)-3-(trifluoromethyl)cyclobutane-1-carboxamide] had an EC50 of 0.042 µM.
Take `Cn1ncc2cc(-c3cccc(N(CC45CCC(c6nc(C7CC7)no6)(CC4)CC5)C(=O)C45CC(F)(C4)C5)c3)ccc21` [Example 304, N-((4-(3-cyclopropyl-1,2,4-oxadiazol-5-yl)bicyclo[2.2.2]octan-1-yl)methyl)-3-fluoro-N-(3-(1-methyl-1H-indazol-5-yl)phenyl)bicyclo[1.1.1]pentane-1-carboxamide]: the response was half-maximal at 0.248 µM (EC50).

Usually EC50 stands for the concentration giving half of the maximal effect. Higher therefore signals lower potency in that assay.
